Experimental data taken from patent US20260266848A1, “COMPOSITIONS AND METHODS FOR DIAGNOSING AND TREATING DYSTONIA” (Duke University, priority 2023, published 2026).

Key:
[1] = test system: DYT1 patient plasma derived EVs; assay: Plasma-derived EV proteomics (ExoQuick ULTRA, DIA LC/MS/MS), DYT1 vs Healthy Controls; design: species or system human; settings: Hs. Plasma EVs (DYT1/WT); significance of genotype difference
Method: Data was obtained for extracellular vesicles using previously acquired samples. The ExoQuick® ULTRA EV Isolation System was used to fractionate and enrich EVs from plasma. Isolated plasma EV samples were then submitted to proteomic analysis by the Duke Proteomics and Metabolomics Core Facility (DPMCF). At the DPMCF, quantitative (LC/MS/MS) was performed on 500 ng of each sample, using an EvoSep One UPLC system coupled to a Thermo Orbitrap Astral high-resolution accurate mass tandem mass spectrometer (Thermo). Briefly, the sample was eluted directly from an Evotip which was subjected to a low organic wash and then subjected to an analytical separation using a 1.7 μm EvoSep 150 um ID×15 cm endurance (EveoSep) column running an SPD30 gradient from approximately 5 to 30% acetonitrile with 0.1% formic acid with a column temperature of 50 C. Data collection on the Orbitrap Astral mass spectrometer was performed in a data-independent acquisition (DIA) mode of acquisition with a r=240,000 (@m/z 200) full MS scan from m/z 380-980 with a target AGC value of 4e5 ions. Fixed DIA, windows of 4 m/z from m/z 380 to 980 DIA MS/MS scans were acquired in the Astral with a target AGC value of 5e4 and a max fill time of 6 ms. HCD collision energy setting of 27% was used for all MS2 scans.

[2] = test system: DYT1 patient plasma; assay: Whole plasma metabolomics (Biocrates MxP Quant 500 Kit), DYT1 vs Healthy Controls; settings: DYT1-Dystonia vs Healthy Control
Text: Duke Proteomics and Metabolomics Core Facility (DPMCF) also analyzed metabolites from 41 plasma samples using the Biocrates MxP Quant 500 Kit. Plasma from 14 subjects with DYT1 and 27 Healthy Controls was utilized.

[3] = test system: DYT-TOR1A MEF EVs; assay: Quantitative LC-MS/MS proteomics of EVs from drug-treated DYT-TOR1A MEF cultures (ritonavir, salubrinal); type: cell-based, mouse; design: key to RTV Corrective Direction / RTV Corrective Direction, Grwd1 / RTV Corrective Direction, Srrm2 / RTV Corrective Direction, Rbm17 / RTV Corrective Direction, Dcaf8 / RTV Corrective Direction, Edil3 / RTV Corrective Direction, Timp3 / RTV Corrective Direction, Heatr3 / RTV Corrective Direction, Brd4 / RTV Corrective Direction, P3h4 / RTV Corrective Direction, Pacsin3 / RTV Corrective Direction, Naa50 / RTV Corrective Direction, Lpar6 / RTV Corrective Direction, Ndrg1 / RTV Corrective Direction, Kntc1 / RTV Corrective Direction, Cdk11b / RTV Corrective Direction, Sumo1 / RTV Corrective Direction, Lsm4 / RTV Corrective Direction, Hmga2 / RTV Corrective Direction, Cstf1 / RTV Corrective Direction, Tes / RTV Corrective Direction, Sbno1 / RTV Corrective Direction, Unc119b / RTV Corrective Direction, Cfdp1 / RTV Corrective Direction, Sec61b: YES = protein abundance effect opposite to DYT/WT; settings: EV protein abundance; for RTV Corrective Direction: DYT + RTV (ritonavir) vs DYT, direction compared with DYT/WT; for DYT + RTV/DYT Cohen's d: ritonavir (RTV)-treated DYT vs DYT
[4] = test system: WT MEF EVs; assay: Quantitative LC-MS/MS proteomics of EVs from ISRIB-treated WT MEF cultures; type: cell-based, mouse; design: key to ISRIB and DYT Parallel Direction / ISRIB and DYT Parallel Direction, Ctdsp1 / ISRIB and DYT Parallel Direction, Pcdh19 / ISRIB and DYT Parallel Direction, Tspan7 / ISRIB and DYT Parallel Direction, Myo1e / ISRIB and DYT Parallel Direction, Plpp3 / ISRIB and DYT Parallel Direction, Sh3bp4 / ISRIB and DYT Parallel Direction, Dnajc7 / ISRIB and DYT Parallel Direction, Drg1 / ISRIB and DYT Parallel Direction, Maea: YES = protein abundance effect similar to DYT/WT; settings: EV protein abundance; for WT + ISRIB/WT Cohen's d: ISRIB-treated WT vs WT; for ISRIB and DYT Parallel Direction: WT + ISRIB vs WT, direction compared with DYT/WT

CRYAB
-LogP [1]: 1.577

Cc1ccc(OS(=O)(=O)O)cc1 [p-Cresol-SO4_Cresols]
-LogP [2]: 1.433

MAPK3
-LogP [1]: 1.682

Huwe1
RTV Corrective Direction [3]: YES
DYT + RTV/DYT Cohen's d [3]: 5.04
WT + ISRIB/WT Cohen's d [4]: −3.93
ISRIB and DYT Parallel Direction [4]: YES

Hdgf
RTV Corrective Direction [3]: YES
DYT + RTV/DYT Cohen's d [3]: −0.15
WT + ISRIB/WT Cohen's d [4]: 1.97
ISRIB and DYT Parallel Direction [4]: YES

Ltbp2
RTV Corrective Direction [3]: YES
DYT + RTV/DYT Cohen's d [3]: −5.72
WT + ISRIB/WT Cohen's d [4]: 0.70
ISRIB and DYT Parallel Direction [4]: YES

Tardbp
RTV Corrective Direction [3]: YES
DYT + RTV/DYT Cohen's d [3]: 0.80
WT + ISRIB/WT Cohen's d [4]: 0.28
ISRIB and DYT Parallel Direction [4]: YES

N[C@@H](CC(=O)O)C(=O)O [Asp_Aminoacids]
-LogP [2]: 1.99

PSMC5
-LogP [1]: 1.615

PSME4
-LogP [1]: 1.398

Prpf8
RTV Corrective Direction [3]: YES
DYT + RTV/DYT Cohen's d [3]: 7.95
WT + ISRIB/WT Cohen's d [4]: −0.01
ISRIB and DYT Parallel Direction [4]: YES

CCCCCCCCCCCCCCCCCCCCCCCCCC(=O)OC[C@@H](O)COP(=O)([O-])OCC[N+](C)(C)C [lysoPC a C26:0_Glycerophospholipids]
-LogP [2]: 2.027

Akr1b1
RTV Corrective Direction [3]: YES
DYT + RTV/DYT Cohen's d [3]: 5.32
WT + ISRIB/WT Cohen's d [4]: −0.22
ISRIB and DYT Parallel Direction [4]: YES

TARDBP
-LogP [1]: 1.352

TLN2
-LogP [1]: 1.45

Hmcn1
RTV Corrective Direction [3]: YES
DYT + RTV/DYT Cohen's d [3]: −3.58
WT + ISRIB/WT Cohen's d [4]: −2.25

NCCCCC(=O)O [5-AVA_Aminoacids Related]
-LogP [2]: 2.862

Cnot1
RTV Corrective Direction [3]: YES
DYT + RTV/DYT Cohen's d [3]: 5.54
WT + ISRIB/WT Cohen's d [4]: −2.56
ISRIB and DYT Parallel Direction [4]: YES

Svep1
RTV Corrective Direction [3]: YES
DYT + RTV/DYT Cohen's d [3]: −0.40
WT + ISRIB/WT Cohen's d [4]: −0.50

Ltbp1
RTV Corrective Direction [3]: YES
DYT + RTV/DYT Cohen's d [3]: −3.08
WT + ISRIB/WT Cohen's d [4]: 2.17
ISRIB and DYT Parallel Direction [4]: YES

RHOA
-LogP [1]: 1.674

PI4KA
-LogP [1]: 2.66

DLST
-LogP [1]: 1.928

Sptan1
RTV Corrective Direction [3]: YES
DYT + RTV/DYT Cohen's d [3]: 3.22
WT + ISRIB/WT Cohen's d [4]: −0.40
ISRIB and DYT Parallel Direction [4]: YES

TLN1
-LogP [1]: 1.51

Idh2
RTV Corrective Direction [3]: YES
DYT + RTV/DYT Cohen's d [3]: 23.61
WT + ISRIB/WT Cohen's d [4]: −2.01
ISRIB and DYT Parallel Direction [4]: YES

N[C@@H](CSSC[C@H](N)C(=O)O)C(=O)O [Cystine_Aminoacids Related]
-LogP [2]: 2.546

Oxsr1
RTV Corrective Direction [3]: YES
DYT + RTV/DYT Cohen's d [3]: 5.88
WT + ISRIB/WT Cohen's d [4]: −0.72
ISRIB and DYT Parallel Direction [4]: YES

Otub1
RTV Corrective Direction [3]: YES
DYT + RTV/DYT Cohen's d [3]: 5.84
WT + ISRIB/WT Cohen's d [4]: −2.26
ISRIB and DYT Parallel Direction [4]: YES

TGFB2
-LogP [1]: 2.018

PCMT1
-LogP [1]: 1.506

Usp7
RTV Corrective Direction [3]: YES
DYT + RTV/DYT Cohen's d [3]: 6.89
WT + ISRIB/WT Cohen's d [4]: −1.90
ISRIB and DYT Parallel Direction [4]: YES

lgf1r
RTV Corrective Direction [3]: YES
DYT + RTV/DYT Cohen's d [3]: 0.63
WT + ISRIB/WT Cohen's d [4]: 0.75

Sar1a
RTV Corrective Direction [3]: YES
DYT + RTV/DYT Cohen's d [3]: 4.40
WT + ISRIB/WT Cohen's d [4]: −1.23
ISRIB and DYT Parallel Direction [4]: YES

Ptprs
RTV Corrective Direction [3]: YES
DYT + RTV/DYT Cohen's d [3]: −5.40
WT + ISRIB/WT Cohen's d [4]: 0.13
ISRIB and DYT Parallel Direction [4]: YES

Spp1
RTV Corrective Direction [3]: YES
DYT + RTV/DYT Cohen's d [3]: −6.93
WT + ISRIB/WT Cohen's d [4]: 2.67
ISRIB and DYT Parallel Direction [4]: YES

Cope
RTV Corrective Direction [3]: YES
DYT + RTV/DYT Cohen's d [3]: 7.24
WT + ISRIB/WT Cohen's d [4]: −1.30
ISRIB and DYT Parallel Direction [4]: YES

Col10a1
RTV Corrective Direction [3]: YES
DYT + RTV/DYT Cohen's d [3]: −3.41
WT + ISRIB/WT Cohen's d [4]: 0.36
ISRIB and DYT Parallel Direction [4]: YES

Dhx9
RTV Corrective Direction [3]: YES
DYT + RTV/DYT Cohen's d [3]: 6.23
WT + ISRIB/WT Cohen's d [4]: −1.27
ISRIB and DYT Parallel Direction [4]: YES

Nrbp1
RTV Corrective Direction [3]: YES
DYT + RTV/DYT Cohen's d [3]: 6.35
WT + ISRIB/WT Cohen's d [4]: 0.18

Ilf2
RTV Corrective Direction [3]: YES
DYT + RTV/DYT Cohen's d [3]: 2.47
WT + ISRIB/WT Cohen's d [4]: −1.37
ISRIB and DYT Parallel Direction [4]: YES

Col5a1
RTV Corrective Direction [3]: YES
DYT + RTV/DYT Cohen's d [3]: −0.89
WT + ISRIB/WT Cohen's d [4]: 0.06
ISRIB and DYT Parallel Direction [4]: YES

Notch3
RTV Corrective Direction [3]: YES
DYT + RTV/DYT Cohen's d [3]: −2.22
WT + ISRIB/WT Cohen's d [4]: 0.52
ISRIB and DYT Parallel Direction [4]: YES

Rab1b
RTV Corrective Direction [3]: YES
DYT + RTV/DYT Cohen's d [3]: 1.15
WT + ISRIB/WT Cohen's d [4]: −2.54
ISRIB and DYT Parallel Direction [4]: YES

CCCCCCCCCCCCCCCCCCCCCCCCCCCC(=O)OC[C@@H](O)COP(=O)([O-])OCC[N+](C)(C)C [lysoPC a C28:0_Glycerophospholipids]
-LogP [2]: 1.585

FLNA
-LogP [1]: 1.743

MYH9
-LogP [1]: 1.313
